pEC50, pIC50, pKd: −log10 of the molar value.
Assays:
[1] = target: Dual specificity mitogen-activated protein kinase kinase 1 (Homo sapiens, UniProt Q02750); test: Inhibition of MEK1 (unknown origin) phosphorylation by [gamma-33P]-ATP assay
[2] = target: T1, Receptor-type tyrosine-protein kinase FLT3 (Homo sapiens, UniProt P36888); test: Inhibition of FLT3 (unknown origin) phosphorylation by [gamma-33P]-ATP assay
T1 sequence (P36888 whole entry): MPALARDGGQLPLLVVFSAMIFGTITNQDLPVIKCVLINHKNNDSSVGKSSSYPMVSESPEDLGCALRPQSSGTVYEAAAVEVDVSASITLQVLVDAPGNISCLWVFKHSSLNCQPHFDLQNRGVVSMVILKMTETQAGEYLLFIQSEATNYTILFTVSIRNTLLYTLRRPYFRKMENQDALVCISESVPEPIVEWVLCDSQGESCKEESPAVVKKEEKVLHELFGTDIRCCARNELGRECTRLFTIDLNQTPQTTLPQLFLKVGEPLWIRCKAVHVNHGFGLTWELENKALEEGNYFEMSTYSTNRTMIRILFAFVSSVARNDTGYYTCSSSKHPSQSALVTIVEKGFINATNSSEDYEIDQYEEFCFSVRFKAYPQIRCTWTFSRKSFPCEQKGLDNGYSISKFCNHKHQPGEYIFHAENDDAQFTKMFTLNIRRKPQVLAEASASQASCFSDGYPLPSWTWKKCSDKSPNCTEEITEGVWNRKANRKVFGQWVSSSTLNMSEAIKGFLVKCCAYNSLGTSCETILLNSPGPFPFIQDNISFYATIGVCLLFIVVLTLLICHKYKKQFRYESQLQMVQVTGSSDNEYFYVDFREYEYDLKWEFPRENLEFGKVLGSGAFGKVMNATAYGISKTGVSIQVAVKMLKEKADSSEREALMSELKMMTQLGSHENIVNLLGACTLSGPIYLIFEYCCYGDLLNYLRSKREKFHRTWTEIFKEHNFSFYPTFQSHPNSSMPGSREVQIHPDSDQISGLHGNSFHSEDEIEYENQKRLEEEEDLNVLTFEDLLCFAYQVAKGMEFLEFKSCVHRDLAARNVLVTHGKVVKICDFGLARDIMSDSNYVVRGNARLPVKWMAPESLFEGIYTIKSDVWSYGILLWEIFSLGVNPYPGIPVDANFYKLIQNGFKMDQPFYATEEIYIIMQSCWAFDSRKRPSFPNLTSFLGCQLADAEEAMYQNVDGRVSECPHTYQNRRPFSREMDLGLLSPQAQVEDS

[3] = Cytotoxicity against mouse Ba/F3 FLT3-D835Y cells by trypan blue dye exclusion method; type: functional, cell-based; settings: BaF3
[4] = Cytotoxicity against mouse BAF3(transformed) cells harboring D835G mutant by trypan blue dye exclusion method; type: functional, cell-based
MV4-11 [5] = test: Cytotoxicity against human MV4-11 cells expressing FLT3 ITD mutant; type: functional, cell-based
MOLM-13 [6] = test: Cytotoxicity against human MOLM13 cells expressing FLT3 ITD mutant; type: functional, cell-based
MOLM-13 [7] = test: Cytotoxicity against human MOLM13 cells; type: functional, cell-based
MOLM-14 = test: Cytotoxicity against human MOLM14 cells; type: functional, cell-based
MV4-11 [8] = test: Cytotoxicity against human MV4-11 cells; type: functional, cell-based
[9] = target: T1, Receptor-type tyrosine-protein kinase FLT3; test: Binding affinity to FLT3 (unknown origin)
[10] = target: Serine/threonine-protein kinase pim-2 (Homo sapiens, UniProt Q9P1W9); test: Binding affinity to Pim-2 (unknown origin)
Chain of Serine/threonine-protein kinase pim-2 (Q9P1W9 whole entry): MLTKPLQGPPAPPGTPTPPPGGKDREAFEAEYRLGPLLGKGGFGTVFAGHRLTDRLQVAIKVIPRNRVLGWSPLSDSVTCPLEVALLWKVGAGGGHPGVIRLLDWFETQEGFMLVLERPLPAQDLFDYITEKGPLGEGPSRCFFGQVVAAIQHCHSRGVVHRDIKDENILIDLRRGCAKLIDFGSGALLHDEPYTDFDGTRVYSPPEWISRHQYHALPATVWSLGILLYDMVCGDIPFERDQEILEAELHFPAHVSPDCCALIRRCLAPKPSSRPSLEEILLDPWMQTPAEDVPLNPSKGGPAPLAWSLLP

[11] = target: Serine/threonine-protein kinase pim-3 (Homo sapiens, UniProt Q86V86); test: Binding affinity to Pim-3 (unknown origin)
[12] = target: Serine/threonine-protein kinase pim-1 (Homo sapiens, UniProt P11309); test: Binding affinity to Pim-1 (unknown origin)
Chain of Serine/threonine-protein kinase pim-1 (P11309 whole entry): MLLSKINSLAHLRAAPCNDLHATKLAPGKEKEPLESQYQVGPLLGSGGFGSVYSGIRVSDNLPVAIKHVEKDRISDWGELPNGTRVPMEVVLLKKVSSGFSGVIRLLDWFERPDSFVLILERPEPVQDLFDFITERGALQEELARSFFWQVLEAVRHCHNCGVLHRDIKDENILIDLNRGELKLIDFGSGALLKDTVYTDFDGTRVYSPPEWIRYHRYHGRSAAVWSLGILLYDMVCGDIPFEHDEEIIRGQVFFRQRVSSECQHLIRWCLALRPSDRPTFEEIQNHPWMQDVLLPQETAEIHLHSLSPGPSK

[13] = Oral bioavailability in monkey; type: ADME, organism-based, Macaca mulatta; settings: rhesus monkey, in vivo
[14] = Oral bioavailability in dog; type: ADME, organism-based, Canis lupus familiaris; settings: in vivo
[15] = target: T1, Receptor-type tyrosine-protein kinase FLT3; test: Inhibition of wild type FLT3 (unknown origin) expressed in mouse BAF3 cells; type: cell-based
MV4-11 [16] = test: Antitumor activity against human MV4-11 cells xenografted in SCID/beige mouse assessed as tumor growth inhibition at 50 mg/kg administered daily relative to control; type: functional; settings: read-out: TGI
MV4-11 [17] = test: Antitumor activity against human MV4-11 cells xenografted in SCID/beige mouse assessed as tumor growth inhibition at 75 mg/kg administered daily relative to control; type: functional; settings: read-out: TGI
MV4-11 [18] = test: Antitumor activity against human MV4-11 cells xenografted in SCID/beige mouse assessed as tumor growth inhibition at 100 mg/kg administered daily relative to control; type: functional; settings: read-out: TGI
MOLM-13 [19] = test: Antiproliferative activity against human MOLM13 cells after 48 hrs by CellTiter-Glo assay; type: functional, cell-based; settings: MOLM-13, 48 h
MV4-11 [20] = test: Antiproliferative activity against human MV4-11 cells after 48 hrs by CellTiter-Glo assay; type: functional, cell-based; settings: MV4-11, 48 h

Chain of Dual specificity mitogen-activated protein kinase kinase 1 (Q02750 whole entry): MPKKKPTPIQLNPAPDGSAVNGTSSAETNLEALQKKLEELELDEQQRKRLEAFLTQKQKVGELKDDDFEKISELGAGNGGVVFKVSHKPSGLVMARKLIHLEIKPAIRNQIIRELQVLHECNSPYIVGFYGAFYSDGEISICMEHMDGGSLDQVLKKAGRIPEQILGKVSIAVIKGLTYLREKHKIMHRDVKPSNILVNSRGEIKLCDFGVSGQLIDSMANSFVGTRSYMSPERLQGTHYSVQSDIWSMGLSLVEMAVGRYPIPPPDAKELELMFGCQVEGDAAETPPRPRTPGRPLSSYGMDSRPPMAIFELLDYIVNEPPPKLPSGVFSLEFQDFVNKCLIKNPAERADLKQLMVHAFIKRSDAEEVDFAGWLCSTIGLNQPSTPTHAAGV

CCNc1cc(O)c2c(c1)/C=C/C[C@H](O)[C@H](O)C(=O)/C=C\[C@@H](C)[C@H](C)OC2=O [E-6201]
pIC50 [1]: 7.30
pIC50 [2]: 8.30
pIC50 [3]: 4.59
pIC50 [4]: 5.34

CC1(COc2ccc3c(c2)ncn3-c2ccc3cccc(N4CCC(N)CC4)c3n2)COC1 [CRENOLANIB]
pIC50 (MV4-11 [5]): 8.82
pIC50 (MOLM-13 [6]): 8.31

Cc1n[nH]c2ccc(-c3cncc(OC[C@@H](N)Cc4ccccc4)c3)cc12
pEC50 (MOLM-13 [7]): 6.77
pEC50 (MOLM-14): 7.22
pEC50 (MV4-11 [8]): 7.04

C[C@]12O[C@H](C[C@H](O)[C@H]1O)n1c3ccccc3c3c4c(c5c6ccccc6n2c5c31)C(=O)NC4=O
pKd [9]: 8.49
pKd [10]: 8.51
pKd [11]: 9.40
pKd [12]: 8.54

COc1cc2c(N3CCN(C(=O)Nc4ccc(OC(C)C)cc4)CC3)ncnc2cc1OCCCN1CCCCC1 [TANDUTINIB]
bioavailability [13]: 100%
bioavailability [14]: 50%

COc1cccc2nc(-c3cccs3)nc(NN3C(=O)C=C(C)C3=O)c12 [AS-602868]
pIC50 [15]: 6.21

CC(C)n1c(C2CCNCC2)nc2c([N+](=O)[O-])c(Br)c(Br)cc21 [DAPOLSERTIB]
inhibition in vivo at 50 mg/kg (MV4-11 [16]): 67%
inhibition in vivo at 75 mg/kg (MV4-11 [17]): 74%
inhibition in vivo at 100 mg/kg (MV4-11 [18]): 82%

C1=N/C2=N/c3ccc(OCCN4CCCC4)c(c3)COC/C=C/COCc3cccc(c3)C(=C1)N2 [PACRITINIB]
pIC50 (MOLM-13 [19]): 7.33
pIC50 (MV4-11 [20]): 7.17

Source: ChEMBL document CHEMBL4359824, “Dual FLT3 inhibitors: Against the drug resistance of acute myeloid leukemia in recent decade” (Eur J Med Chem, 2019)
